Data published in article PMC4104591 (Structure (London, England : 1993), 2013).

Target: mutant-MDM2-p53 complex (Homo sapiens, UniProt Q00987, E23G/S22P)
Test: Competitive AIDA-NMR antagonist-induced dissociation assay
Type: binding
Conditions: compared with the WT-MDM2-p53 complex

Chain of mutant-MDM2-p53 complex (Q00987 1-125 S22P/E23G, one chain of several): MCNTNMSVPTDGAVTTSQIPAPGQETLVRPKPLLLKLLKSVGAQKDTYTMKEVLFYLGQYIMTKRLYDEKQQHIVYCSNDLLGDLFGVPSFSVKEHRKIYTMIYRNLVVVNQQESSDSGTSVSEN

effectiveness in dissociating the mutant-MDM2-p53 complex: less effective
SMILES: COc1ccc(C2=N[C@@H](c3ccc(Cl)cc3)[C@@H](c3ccc(Cl)cc3)N2C(=O)N2CCNC(=O)C2)c(OC(C)C)c1 [nutlin-3]
